Measured values reported in publication PMC10787398, “Simultaneous determination of colistin sulfate and tigecycline in human plasma by liquid chromatography-tandem mass spectrometry method” (BMC Chemistry, 2024).

Columns and labels:
[1] = Plasma trough and peak concentrations in patients on intravenous polymyxin and tigecycline (HPLC-MS/MS); details: First dose 100 mg maintenance dose 50 mg q12h iv, plasma, HPLC-MS/MS; for Tigecycline Peak concentration: 30 min after 7th administration; for Tigecycline Trough concentration: before 7th administration
Description: Plasma samples were collected from patients receiving simultaneous intravenous polymyxin and tigecycline treatment. Inclusion criteria: ① Patients receiving simultaneous intravenous polymyxin and tigecycline treatment; ② Age ≥ 18 years; ③ Patients who consent to the monitoring of polymyxin and tigecycline blood drug concentrations during treatment. Exclusion criteria: ① Pregnant or lactating women; ② Treatment duration < 3 days; ③ Local administration; ④ Blood dialysis treatment. Once the blood drug concentration reached a steady state, 3 ml of venous blood was collected before and 30 min after the seventh administration to measure the peak and trough concentrations. This study was conducted with approval from the Ethics Committee of Second Hospital of Hebei Medical University (2020-R551). This study was conducted in accordance with the declaration of Helsinki.
Two hundred microliters of the plasma sample were adopted, with 20 µL of the internal standard added, and it was vortexed for 20 s. Two hundred microliters of 5% trichloroacetic acid was added for acidification and vortexed for 10 s. Two hundred microliters of methanol was added for extraction, vortexed for 2 min, and centrifuged at 10,900 r/min for 5 min. Two hundred microliters of the supernatant were aspirated into the injection bottle, and 10 µL of the sample was injected for the HPLC–MS/MS analysis.
All patients received an initial dose of 100 mg and a maintenance dose of 50 mg q12h for tigecycline. Three milliliters of venous blood were collected before and after the seventh administration to measure the peak and trough concentrations of the drugs.

[2] = Stability of analytes in spiked plasma samples under storage conditions; format: in vitro ADME, human; details: for Measured value, Stored at -80℃ for 7 days / Measured value, Automatic sampler 15℃ for 24 h / Measured value, Freeze-thaw for 3 cycles / Measured value, At 4℃ for 12 h / Measured value, At room temperature for 6 h: HPLC-MS/MS, n = 5; for Measured value, Automatic sampler 15℃ for 24 h: automatic sampler 15 ℃ 24 h; for Measured value, Freeze-thaw for 3 cycles: frozen at -80 °C and thawed at room temperature; for Measured value, At 4℃ for 12 h: refrigerator 4 °C 12 h
Protocol: Plasma samples with low, medium, and high mass concentrations were prepared (the mass concentrations of colistin sulfate were 0.1, 1, and 8 µg/mL, respectively, and those of tigecycline were 0.05, 0.5, and 4 µg/mL, respectively). Five replicates of each concentration were prepared and placed in a refrigerator at 4 °C for 12 h, at room temperature for 6 h, and in an automatic sampler at 15 ℃ for 24 h. The samples were, on three occasions, frozen at − 80 °C and thawed at room temperature, and then placed in a − 80 °C refrigerator for seven days. The concentrations and RSDs of colistin sulfate and tigecycline in the plasma samples were calculated based on the accompanying standard curve of the day to evaluate their stabilities.

[3] = patient 1 (BMI 27.04 kg/m^2, CrCL 107 ml/min, ALB 33.8 g/L)
[4] = patient 2 (BMI 27.69 kg/m^2, CrCL 36 ml/min, ALB 30.35 g/L)
[5] = patient 3 (BMI 23.88 kg/m^2, CrCL 90 ml/min, ALB 26.80 g/L)
[6] = patient 4 (BMI 18.72 kg/m^2, CrCL 111 ml/min, ALB 32.50 g/L)
[7] = patient 5 (BMI 22.14 kg/m^2, CrCL 84 ml/min, ALB 28.00 g/L)
[8] = patient 6 (Femaee, BMI 19.3 kg/m^2, CrCL 161 ml/min, ALB 35.3 g/L)
[9] = patient 7 (BMI 24.16 kg/m^2, CrCL 59 ml/min, ALB 36.72 g/L)
[10] = patient 8 (BMI 27.44 kg/m^2, CrCL 98 ml/min, ALB 33.30 g/L)
[11] = patient 9 (BMI 20.91 kg/m^2, CrCL 106 ml/min, ALB 32.71 g/L)
[12] = patient 10 (BMI 21.95 kg/m^2, CrCL 129 ml/min, ALB 31.89 g/L)
[13] = patient 11 (BMI 22.51 kg/m^2, CrCL 27 ml/min, ALB 27.10 g/L)
[14] = patient 12 (BMI 23.71 kg/m^2, CrCL 170 ml/min, ALB 32.50 g/L)
[15] = plasma QC high, nominal colistin sulfate 8 µg/mL, tigecycline 4 µg/mL
[16] = plasma QC low, nominal colistin sulfate 0.1 µg/mL, tigecycline 0.05 µg/mL
[17] = plasma QC medium, nominal colistin sulfate 1 µg/mL, tigecycline 0.5 µg/mL

## CN(C)c1cc(NC(=O)CNC(C)(C)C)c(O)c2c1C[C@H]1C[C@H]3[C@H](N(C)C)C(O)=C(C(N)=O)C(=O)[C@@]3(O)C(O)=C1C2=O [Tigecycline, tigecycline]
[1]; [3]
  Tigecycline Peak concentration: 1.72 µg/mL
  Tigecycline Trough concentration: 0.79 µg/mL
[1]; [4]
  Tigecycline Peak concentration: 1.68 µg/mL
  Tigecycline Trough concentration: 0.81 µg/mL
[1]; [5]
  Tigecycline Peak concentration: 1.67 µg/mL
  Tigecycline Trough concentration: 0.77 µg/mL
[1]; [6]
  Tigecycline Peak concentration: 1.47 µg/mL
  Tigecycline Trough concentration: 0.69 µg/mL
[1]; [7]
  Tigecycline Peak concentration: 1.17 µg/mL
  Tigecycline Trough concentration: 0.58 µg/mL
[1]; [8]
  Tigecycline Peak concentration: 1.11 µg/mL
  Tigecycline Trough concentration: 0.66 µg/mL
[1]; [9]
  Tigecycline Peak concentration: 1.01 µg/mL
  Tigecycline Trough concentration: 0.58 µg/mL
[1]; [10]
  Tigecycline Peak concentration: 0.92 µg/mL
  Tigecycline Trough concentration: 0.63 µg/mL
[1]; [11]
  Tigecycline Peak concentration: 1.22 µg/mL
  Tigecycline Trough concentration: 0.65 µg/mL
[1]; [12]
  Tigecycline Peak concentration: 1.08 µg/mL
  Tigecycline Trough concentration: 0.33 µg/mL
[1]; [13]
  Tigecycline Peak concentration: 0.99 µg/mL
  Tigecycline Trough concentration: 0.25 µg/mL
[1]; [14]
  Tigecycline Peak concentration: 1.78 µg/mL
  Tigecycline Trough concentration: 0.48 µg/mL
[2]; plasma QC high, nominal colistin sulfate 8 µg/mL, tigecycline 4 µg/mL, -80 °C 7 days
  Measured value, Stored at -80℃ for 7 days: 4.30 ± 0.03 µg/mL
[2]; [15]
  Measured value, Automatic sampler 15℃ for 24 h: 4.00 ± 0.26 µg/mL
  Measured value, Freeze-thaw for 3 cycles: 3.82 ± 0.45 µg/mL
  Measured value, At 4℃ for 12 h: 3.93 ± 0.36 µg/mL
[2]; plasma QC high, nominal colistin sulfate 8 µg/mL, tigecycline 4 µg/mL, room temperature 6 h
  Measured value, At room temperature for 6 h: 4.87 ± 0.07 µg/mL
[2]; plasma QC low, nominal colistin sulfate 0.1 µg/mL, tigecycline 0.05 µg/mL, -80 °C 7 days
  Measured value, Stored at -80℃ for 7 days: 0.05 ± 0.00 µg/mL
[2]; [16]
  Measured value, Automatic sampler 15℃ for 24 h: 0.05 ± 0.00 µg/mL
  Measured value, Freeze-thaw for 3 cycles: 0.05 ± 0.00 µg/mL
  Measured value, At 4℃ for 12 h: 0.05 ± 0.00 µg/mL
[2]; plasma QC low, nominal colistin sulfate 0.1 µg/mL, tigecycline 0.05 µg/mL, room temperature 6 h
  Measured value, At room temperature for 6 h: 0.05 ± 0.00 µg/mL
[2]; plasma QC medium, nominal colistin sulfate 1 µg/mL, tigecycline 0.5 µg/mL, -80 °C 7 days
  Measured value, Stored at -80℃ for 7 days: 0.46 ± 0.03 µg/mL
[2]; [17]
  Measured value, Automatic sampler 15℃ for 24 h: 0.49 ± 0.03 µg/mL
  Measured value, Freeze-thaw for 3 cycles: 0.52 ± 0.04 µg/mL
  Measured value, At 4℃ for 12 h: 0.46 ± 0.01 µg/mL
[2]; plasma QC medium, nominal colistin sulfate 1 µg/mL, tigecycline 0.5 µg/mL, room temperature 6 h
  Measured value, At room temperature for 6 h: 0.54 ± 0.03 µg/mL
[2]; plasma samples, 4 °C 12 h, room temperature 6 h, autosampler 15 ℃ 24 h, 3 freeze-thaw cycles, -80 °C 7 days
  stability under the above conditions: good stability
